Reference: patent US20250230193A1, “CYCLIC COMPOUND HAVING SELECTIVE KRAS INHIBITORY EFFECT ON HRAS AND NRAS” (CHUGAI SEIYAKU KABUSHIKI KAISHA, priority 2022, published 2025)
*1 amine or outer side, *2 acyl side, *3 side chain or, on linkers, in order; H or OH if unused. Where a SMILES comes first, the peptide text is derived from it. Bridges are numbered along the chain shown (N, C = ends). [ ]: non-standard residue; d: D form. The star is where a group is joined. hPhe(3-Cl-4-CF3) = N[C@@H](CCc1ccc(C(F)(F)F)c(Cl)c1)C(=O)O; NPrPhe(4-CF3) = CCCN[C@@H](Cc1ccc(C(F)(F)F)cc1)C(=O)O; X22 = CCCN([C@@H](COC1CCC1)C(=O)[*:2])[*:1]; X4 = CCCN([C@@H](COCCC(C)C)C(=O)[*:2])[*:1]; X33 = CCCN([C@@H](CC(C)C)C(=O)[*:2])[*:1]; NMeGly(cPent) = CN[C@H](C(=O)O)C1CCCC1; NMeD = CN[C@@H](CC(=O)O)C(=O)O; NMeL = CN[C@@H](CC(C)C)C(=O)O; Morpholide = C1CN(*)CCO1; NMeA = CN[C@@H](C)C(=O)O; Aze = O=C(O)[C@@H]1CCN1; Ac4c = NC1(C(=O)O)CCC1; Sar = CNCC(=O)O

How the values were obtained:
[1] = target: GDP-bound NRAS wild-type protein (Homo sapiens, UniProt P01111); test: Binding to NRAS by surface plasmon resonance (SPR), Single Cycle Kinetics; details: KD ratio, GDP-bound NRAS wild-type vs GDP-bound KRAS wild-type, SPR
[2] = target: GDP-bound HRAS wild-type protein (Homo sapiens, UniProt P01112); test: Binding to HRAS by surface plasmon resonance (SPR), Single Cycle Kinetics; details: KD ratio, GDP-bound HRAS wild-type vs GDP-bound KRAS wild-type, SPR
Chain of GDP-bound HRAS wild-type protein (P01112 whole entry): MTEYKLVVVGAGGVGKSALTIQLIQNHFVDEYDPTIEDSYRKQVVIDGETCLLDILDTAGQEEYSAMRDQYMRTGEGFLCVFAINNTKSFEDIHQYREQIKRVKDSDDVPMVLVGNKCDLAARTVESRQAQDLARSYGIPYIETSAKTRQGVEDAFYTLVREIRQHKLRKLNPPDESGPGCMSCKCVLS

Chain of GDP-bound NRAS wild-type protein (P01111 whole entry): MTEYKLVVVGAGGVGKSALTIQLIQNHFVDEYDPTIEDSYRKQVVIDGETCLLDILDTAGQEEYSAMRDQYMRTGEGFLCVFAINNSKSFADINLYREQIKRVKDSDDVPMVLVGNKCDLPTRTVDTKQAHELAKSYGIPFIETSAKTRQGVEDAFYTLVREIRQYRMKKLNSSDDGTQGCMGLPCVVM

| Compound | NRAS/KRAS (ratio of KD value for NRAS to KD value for KRAS) [1] | HRAS/KRAS (ratio of KD value for HRAS to KD value for KRAS) [2] |
| --- | --- | --- |
| CC[C@H](C)[C@@H]1NC(=O)[C@H](CC2CCC2)N(C)C(=O)C[C@@H](C(=O)N(C)C)N(C)C(=O)[C@H](C2CCCC2)N(C)C(=O)C2(CCC2)N(C)C(=O)[C@@H]2C[C@@H](C)CN2C(=O)[C@H](CCc2cc(F)c(C(F)(F)F)c(F)c2)NC(=O)CN(C)C(=O)[C@H](Cc2ccc(C)cc2)N2CC/C=C\C[C@@H](C2=O)N(C)C(=O)CN(C)C1=O [PP1803] | A (a compound having 10 or more and less than 20 is denoted as A) | B (a compound having 3 or more and less than 10 is denoted as B) |
| CCO[C@@H]1C[C@H]2C(=O)N(C)C3(CCCC3)C(=O)N(C)[C@@H](C3CCCC3)C(=O)N(C)[C@H](C(=O)N(C)C)CC(=O)N(C)[C@@H](CC)C(=O)N[C@@H]([C@@H](C)CC)C(=O)N(C)CC(=O)N(C)[C@H]3C/C=C\CCN(C3=O)[C@@H](Cc3ccc(C(F)(F)F)cc3)C(=O)N(C)CC(=O)N[C@@H](CCc3cc(F)c(C(F)(F)F)c(F)c3)C(=O)N2C1 [PP1804] | A (a compound having 10 or more and less than 20 is denoted as A) | A (a compound having 10 or more and less than 20 is denoted as A) |
| CC[C@H](C)[C@@H]1NC(=O)[C@H](CC)N(C)C(=O)C[C@@H](C(=O)N(C)C)N(C)C(=O)[C@H](C2CCCC2)N(C)C(=O)C2(CCCC2)N(C)C(=O)[C@@H]2CCCN2C(=O)[C@H](CCc2cc(F)c(C(F)(F)F)c(F)c2)NC(=O)CN(C)C(=O)[C@H](Cc2ccc(C(F)(F)F)cc2)N2CC/C=C\C[C@@H](C2=O)N(C)C(=O)CN(C)C1=O [PP1805] | A (a compound having 10 or more and less than 20 is denoted as A) | A (a compound having 10 or more and less than 20 is denoted as A) |
| CCO[C@@H]1C[C@H]2C(=O)N(C)C3(CCCC3)C(=O)N(C)[C@@H](C3CCCC3)C(=O)N(C)[C@H](C(=O)N(C)C)CC(=O)N(C)[C@@H](CC)C(=O)N[C@@H]([C@@H](C)CC)C(=O)N(C)CC(=O)N(C)[C@H]3C/C=C\CCN(C3=O)[C@@H](Cc3ccc(C)cc3)C(=O)N(C)CC(=O)N[C@@H](CCc3cc(F)c(C(F)(F)F)c(F)c3)C(=O)N2C1 [PP1806] | A (a compound having 10 or more and less than 20 is denoted as A) | B (a compound having 3 or more and less than 10 is denoted as B) |
| CC[C@H](C)[C@@H]1NC(=O)[C@H](CC)N(C)C(=O)C[C@@H](C(=O)N(C)C)N(C)C(=O)[C@H](C2CCCC2)N(C)C(=O)C2(CCCC2)N(C)C(=O)[C@@H]2CCCN2C(=O)[C@H](CCc2cc(F)c(C(F)(F)F)c(F)c2)NC(=O)CN(C)C(=O)[C@H](Cc2ccc(C)cc2)N2CC/C=C\C[C@@H](C2=O)N(C)C(=O)CN(C)C1=O [PP1807] | A (a compound having 10 or more and less than 20 is denoted as A) | B (a compound having 3 or more and less than 10 is denoted as B) |
| CCO[C@@H]1C[C@H]2C(=O)N(C)C3(CCCC3)C(=O)N(C)[C@@H](C3CCCC3)C(=O)N(C)[C@H](C(=O)N(C)C)CC(=O)N(C)[C@@H](C3CC3)C(=O)N[C@@H]([C@@H](C)CC)C(=O)N(C)CC(=O)N(C)[C@H]3C/C=C\CCN(C3=O)[C@@H](Cc3ccc(C)cc3)C(=O)N(C)CC(=O)N[C@@H](CCc3cc(F)c(C(F)(F)F)c(F)c3)C(=O)N2C1 [PP1808] | A (a compound having 10 or more and less than 20 is denoted as A) | B (a compound having 3 or more and less than 10 is denoted as B) |
| CCO[C@@H]1C[C@H]2C(=O)N(C)C3(CCCC3)C(=O)N(C)[C@@H](C3CCCC3)C(=O)N(C)[C@H](C(=O)N(C)C)CC(=O)N(C)[C@@H](CC)C(=O)N[C@@H]([C@@H](C)CC)C(=O)N3CCC[C@H]3C(=O)N(C)[C@H]3C/C=C\CCN(C3=O)[C@@H](Cc3ccc(C)cc3)C(=O)N(C)CC(=O)N[C@@H](CCc3cc(F)c(C(F)(F)F)c(F)c3)C(=O)N2C1 [PP1810] | A (a compound having 10 or more and less than 20 is denoted as A) | B (a compound having 3 or more and less than 10 is denoted as B) |
| CC[C@H](C)[C@@H]1NC(=O)[C@H](CC)N(C)C(=O)C[C@@H](C(=O)N(C)C)N(C)C(=O)[C@H](C2CCCC2)N(C)C(=O)C2(CCCC2)N(C)C(=O)[C@@H]2CCCN2C(=O)[C@H](CCc2cc(F)c(C(F)(F)F)c(F)c2)NC(=O)CN(C)C(=O)[C@H](Cc2ccc(C)cc2)N2CC/C=C\C[C@@H](C2=O)N(C)C(=O)[C@@H]2CCCN2C1=O [PP1811] | A (a compound having 10 or more and less than 20 is denoted as A) | B (a compound having 3 or more and less than 10 is denoted as B) |
| CC[C@H](C)[C@@H]1NC(=O)[C@H](CC)N(C)C(=O)C[C@@H](C(=O)N(C)C)N(C)C(=O)[C@H](C2CCCC2)N(C)C(=O)C2(CCCC2)N(C)C(=O)[C@@H]2C[C@@H](C)CN2C(=O)[C@H](CCc2cc(F)c(C(F)(F)F)c(F)c2)NC(=O)CN(C)C(=O)[C@H](Cc2ccc(C)cc2)N2CC/C=C\C[C@@H](C2=O)N(C)C(=O)CN(C)C1=O [PP1812] | A (a compound having 10 or more and less than 20 is denoted as A) | A (a compound having 10 or more and less than 20 is denoted as A) |
| CC[C@H](C)[C@@H]1NC(=O)[C@H](C2CC2)N(C)C(=O)C[C@@H](C(=O)N(C)C)N(C)C(=O)[C@H](C2CCCC2)N(C)C(=O)C2(CCCC2)N(C)C(=O)[C@@H]2C[C@@H](C)CN2C(=O)[C@H](CCc2cc(F)c(C(F)(F)F)c(F)c2)NC(=O)CN(C)C(=O)[C@H](Cc2ccc(C)cc2)N2CC/C=C\C[C@@H](C2=O)N(C)C(=O)CN(C)C1=O [PP1813] | A (a compound having 10 or more and less than 20 is denoted as A) | B (a compound having 3 or more and less than 10 is denoted as B) |
| CC[C@H](C)[C@@H]1NC(=O)[C@H](CC)N(C)C(=O)C[C@@H](C(=O)N(C)C)N(C)C(=O)[C@H](C2CCCC2)N(C)C(=O)C2(CCCC2)N(C)C(=O)[C@@H]2C[C@@H](C)CN2C(=O)[C@H](CCc2cc(F)c(C(F)(F)F)c(F)c2)NC(=O)CN(C)C(=O)[C@H](Cc2ccc(C)cc2)N2CC/C=C\C[C@@H](C2=O)N(C)C(=O)[C@@H]2CCCN2C1=O [PP1814] | A (a compound having 10 or more and less than 20 is denoted as A) | A (a compound having 10 or more and less than 20 is denoted as A) |
| CCCN1C(=O)C[C@@H](C(=O)N2CCOCC2)N(C)C(=O)[C@H](C2CCCC2)N(C)C(=O)C2(CCC2)NC(=O)[C@@H]2CCCN2C(=O)[C@H](CCc2ccc(C(F)(F)F)c(Cl)c2)NC(=O)CN(C)C(=O)[C@H](Cc2ccc(C(F)(F)F)cc2)N(CCC)C(=O)CN(C)C(=O)CN(C)C(=O)[C@H](C(C)C)NC(=O)[C@@H]1CC(C)C [PP1815] ([X33]V[Sar][Sar][NPrPhe(4-CF3)][Sar][hPhe(3-Cl-4-CF3)]P[Ac4c][NMeGly(cPent)][NMeD]-Morpholide; lactam N-11) | B (a compound having 3 or more and less than 10 is denoted as B) | B (a compound having 3 or more and less than 10 is denoted as B) |
| CCCN1C(=O)CN(C)C(=O)CN(C)C(=O)[C@H]([C@@H](C)CC)NC(=O)[C@H](CC(C)C)N(C)C(=O)C[C@@H](C(=O)N2CCOCC2)N(C)C(=O)[C@H](C2CCCC2)N(C)C(=O)C2(CCC2)NC(=O)[C@@H]2CCCN2C(=O)[C@H](CCc2ccc(C(F)(F)F)c(Cl)c2)NC(=O)CN(C)C(=O)[C@@H]1COC1CCC1 [PP1816] ([NMeL]I[Sar][Sar][X22][Sar][hPhe(3-Cl-4-CF3)]P[Ac4c][NMeGly(cPent)][NMeD]-Morpholide; lactam N-11) | B (a compound having 3 or more and less than 10 is denoted as B) | C (A compound having a KD ratio of 0.1 or more and less than 3 is denoted as C) |
| CCCN1C(=O)CN(C)C(=O)CN(C)C(=O)[C@H]([C@@H](C)CC)NC(=O)[C@H](CC(C)C)N(C)C(=O)C[C@@H](C(=O)N2CCOCC2)N(C)C(=O)[C@H](C2CCCC2)N(C)C(=O)C2(CCC2)NC(=O)[C@@H]2CCCN2C(=O)[C@H](CCc2ccc(C(F)(F)F)c(Cl)c2)NC(=O)CN(C)C(=O)[C@@H]1COCCC(C)C [PP1817] ([NMeL]I[Sar][Sar][X4][Sar][hPhe(3-Cl-4-CF3)]P[Ac4c][NMeGly(cPent)][NMeD]-Morpholide; lactam N-11) | C (A compound having a KD ratio of 0.1 or more and less than 3 is denoted as C) | C (A compound having a KD ratio of 0.1 or more and less than 3 is denoted as C) |
| CCCN1C(=O)[C@@H]2CCN2C(=O)[C@H](C)N(C)C(=O)[C@H]([C@@H](C)CC)NC(=O)[C@H](CC(C)C)N(C)C(=O)C[C@@H](C(=O)N2CCOCC2)N(C)C(=O)[C@H](C2CCCC2)N(C)C(=O)C2(CCC2)NC(=O)[C@@H]2CCCN2C(=O)[C@H](CCc2ccc(C(F)(F)F)c(Cl)c2)NC(=O)CN(C)C(=O)[C@@H]1COC1CCC1 [PP1818] ([NMeL]I[NMeA][Aze][X22][Sar][hPhe(3-Cl-4-CF3)]P[Ac4c][NMeGly(cPent)][NMeD]-Morpholide; lactam N-11) | C (A compound having a KD ratio of 0.1 or more and less than 3 is denoted as C) | B (a compound having 3 or more and less than 10 is denoted as B) |
